Reference: article PMC9732253, “Inhibition of the Phosphatidylinositol-3 Kinase Pathway Using Bimiralisib in Loss-of-Function NOTCH1-Mutant Head and Neck Cancer” (The Oncologist, 2022)
“And” between values parts separate entries of the source, which are not always exact repeats. Equal entries are not always repeated. Where two headings read alike, the source gives them in different places.

Tests used:
[1] = system: PI3Kβ; details: compared with PI3Kα and mTOR; cited from earlier work
[2] = Phase II trial, PK analysis: pre-dose and 1 h post-dose blood levels by HPLC; type: in vivo, human; details: for Cmax: human, serum, 140 mg; for Trough: pre-dose
Experimental: Blood was collected before oral dose administration and 1 hour after oral dose administration on days 1, 8, 22, 43, and 64 after the start of therapy. Bimiralisib levels were determined as previously described using high-performance liquid chromatography[8-11] by Charles River Laboratories (Ashland, Ohio). The pre-dose levels were the trough levels and post-dose levels were the assumed peak serum concentration (Cmax) values. Cmax and trough accumulation ratios were calculated by dividing each patient’s treatment day concentration by their initial available drug concentration—day 1 for Cmax and day 8 for trough. Statistical differences among groups were identified by analysis of variance using Statistica version 13.1 (TIBCO Software Inc., Palo Alto, California); P < .05 was considered statistically significant

[3] = system: PI3Kα; details: cited from earlier work
[4] = system: NOTCH1-mutant HNSCC; details: one heavily pretreated patient with NOTCH1-mutant HNSCC, thoracic metastases; cited from earlier work
[5] = system: NOTCH1-mutant HNSCC; assay: Phase II single-arm trial, tumor response by RECIST 1.1 and survival; type: in vivo, human; details: for Median OS / Median PFS: all 8 patients; for Median PFS: 95% CI 39-199 days
Source text: Adults with an Eastern Cooperative Oncology Group performance status of ≤2, measurable disease according to Response Evaluation Criteria in Solid Tumors (RECIST) version 1.1,[1] and histologically confirmed recurrent or metastatic (R/M) HNSCC for which no standard curative or life-prolonging therapy was available were eligible. All patients had already received platinum chemotherapy and α-PD1 immunotherapy unless unable to tolerate them. […] Safety was continuously monitored. Demographic and clinical characteristics were summarized using univariate statistics, including mean, median, and standard deviation or frequency and percentage. Objective response rate was summarized by frequency and percentage with a 2-sided 95% […] CI.[5] Duration of response, PFS, and overall survival were analyzed using the Kaplan-Meier method.[6] All statistical analyses were performed using R statistical software (version 3.6.3, R Core Team, 2020). Survival modeling was performed using the “survival” package.[7] […] Time to response was defined as the time from first study drug administration to the first documentation of response (complete or partial). Duration of response was defined as the time from the date of the first confirmed response to the first documentation of disease progression. PFS was defined as the time from first study drug administration to disease progression or death due to any cause. Overall survival was defined as the time from first study drug administration to death due to any cause.

[6] = cited from earlier work
[7] = system: pathway targets in tumor tissue; parameters: method as in PMID 29660598; details: therapeutic doses; cited from earlier work
[8] = number (%) of 6 patients evaluated for efficacy, RECIST 1.1

Nc1cc(C(F)(F)F)c(-c2nc(N3CCOCC3)nc(N3CCOCC3)n2)cn1 [Bimiralisib, 5-(4,6-dimorpholino-1,3,5-triazin-2-yl)-4-(trifluoromethyl)pyridin-2-amine]
Potency against PI3Kβ [1]: less potency
Cmax ([2]; oral, 140-mg dose, current study, read-out: Maximum Cmax value): 0.97 µg/mL
Cmax ([2]; po, median, Day 1 (n = 6), 1 hour after 140 mg oral dose, read-out: C max): 0.575 µg/mL
Cmax ([2]; po, median, Day 8 (n = 6), 1 hour after oral dose, read-out: C max): 0.574 µg/mL
Cmax ([2]; po, median, Day 22 (n = 5), 1 hour after oral dose, read-out: C max): 0.691 µg/mL
Cmax ([2]; po, median, Day 43 (n = 4), 1 hour after oral dose, read-out: C max): 0.525 µg/mL
Cmax ([2]; po, median, Day 64 (n = 5), 1 hour after oral dose, read-out: C max): 0.546 µg/mL
Cmax accumulation ([2]; intermittent dosing regimen): not observed
Trough ([2]; median, Day 8 (n = 6)): 62 ng/mL
C max accumulation ratio ([2]; median, Day 8 vs day 1): 0.78
Trough ([2]; median, Day 22 (n = 5)): 101 ng/mL
C max accumulation ratio ([2]; median, Day 22 vs day 1): 1.18
Trough accumulation ratio ([2]; median, Day 22 vs day 8): 1.11
Trough ([2]; median, Day 43 (n = 4)): 11.6 ng/mL
C max accumulation ratio ([2]; median, Day 43 vs day 1): 0.82
Trough accumulation ratio ([2]; median, Day 43 vs day 8): 0.94
Trough ([2]; median, Day 64 (n = 5)): 139 ng/mL
C max accumulation ratio ([2]; median, Day 64 vs day 1): 0.94
Trough accumulation ratio ([2]; median, Day 64 vs day 8): 0.63
Inhibition of PI3Kα [3]: potently inhibits
Duration of partial response [4]: 9 months
Response duration ([5]; 6 evaluable patients): 111 days
Objective response rate ([5]; 6 evaluable patients (1/6), RECIST 1.1, 140 mg orally on 2 consecutive days weekly, 95% CI 1-58%): 17%
Median TTP ([5]; CI: 83-inf): 167 days (CI: 83-inf)
Median OS [5]: 7 months
Median PFS [5]: 147 days (CI: 39-199)
Median PFS ([5]; listed as bimiralisib): 147 days
Median OS ([5]; 95% CI 39 days-infinity): 215 days (CI: 39-inf)
Median OS ([5]; 95% CI 39 days-infinity, listed as bimiralisib): 215 days
Response assessment, CR [5, 8]: 0 (0%)
Response assessment, PR [5, 8]: 1 (17%)
Reduction in the target lesion size ([5]; one patient with confirmed partial response): 49%
Day of progressive disease ([5]; one patient with progressive disease): 83
Reduction in the target lesion size compared with baseline, final computed tomography scan ([5]; patient with confirmed partial response, in study until day 157): 45%
Day of disease progression ([5]; three patients with confirmed stable disease, one value each): 91 days and 138 days and 167 days
Time of maximum plasma concentration, latest ([6]; after oral administration): ≤ 24 h
Highest Cmax ([6]; dose of 150 mg, ref 11 (Wicki et al)): 0.998 µg/mL
Terminal half-life ([6]; in vivo): 40 h
Time of maximum plasma concentration after a dose ([6]; most humans, oral): 1 to 2 h
Change of pathway targets in tumor tissue [7]: marked decreases
